Series [1] has as its system Staphylococcus aureus. In words: Inhibitory concentration required against cell wall synthesis in Staphylococcus aureus (MI246). In kind it is functional, organism-based.
For series [2], the system named is Bacteria. In words: Minimum inhibitory concentration required against six gram-positive organisms (G+6). In kind it is functional.
Series [3] can be described thus: Solubility at pH 7.4. In kind it is physicochemical. The note with it: buffer.

In brackets after ≈: the same amount, converted by molar mass.

The results in this text go back to ChEMBL document CHEMBL1134249, “The identification and characterization of hydrazinyl urea-based antibacterial agents through combinatorial chemistry” (Bioorg Med Chem Lett, 2001).

Consider `O=C(NNc1nccc(C(F)(F)F)n1)Nc1cc(C(F)(F)F)cc(C(F)(F)F)c1`, for which 47 µM corresponded to half-maximal inhibition in series [1] (IC50). The MIC (commonly the smallest concentration in the dilution series that meets the test's criterion for growth inhibition) in series [2] was found to be 4 µM (≈ 1.73 µg/mL). The concentration in solution in series [3] (solubility) was 2 µg/mL (≈ 4.62 µM).

On to `CC(C)c1nc2ccccc2c(=O)n1NC(=O)Nc1cc(C(F)(F)F)cc(C(F)(F)F)c1`, for which 66 µM corresponded to half-maximal inhibition in series [1] (IC50). In addition, in series [2], inhibition of growth (MIC) required 1.5 µM (≈ 0.688 µg/mL). In series [3], the solubility (usually the concentration that dissolves in the medium under given conditions) stood at 3 µg/mL (≈ 6.55 µM).

In the case of `O=C(NNC(=O)Nc1cc(C(F)(F)F)cc(C(F)(F)F)c1)Nc1ccc(C(F)(F)F)cc1`, the IC50 (as a rule, the point on the concentration scale where inhibition reaches its midpoint) in series [1] came out at 145 µM. Moreover, in series [2], the lowest concentration to inhibit growth (MIC) was 2 µM (≈ 0.949 µg/mL).

For the compound `O=C(Nc1cc(C(F)(F)F)cc(C(F)(F)F)c1)NN1CCN(CCO)CC1`, the IC50 in series [1] was found to be 167 µM. The compound also registered an MIC in series [2] of more than 300 µM.

`CCc1nc2ccccc2c(=O)n1NC(=O)Nc1cc(C(F)(F)F)cc(C(F)(F)F)c1` came in with an IC50 in series [1] of 36 µM. Besides, in series [2], 7 µM (≈ 3.11 µg/mL) was the least that counted as inhibitory (MIC). Besides, the concentration in solution in series [3] (solubility) came to 59 µg/mL (≈ 133 µM).

In series [1], `O=C(Nc1cc(C(F)(F)F)cc(C(F)(F)F)c1)Nn1cnnc1` showed an IC50 of 236 µM. Also, the MIC in series [2] worked out at 198 µM (≈ 67.2 µg/mL). Further, the solubility in series [3] was 53 µg/mL (≈ 156 µM).

`CN[C@H](CC(C)C)C(=O)N[C@H]1C(=O)N[C@@H](CC(N)=O)C(=O)N[C@H]2C(=O)N[C@H]3C(=O)N[C@H](C(=O)N[C@H](C(=O)O)c4cc(O)cc(O)c4-c4cc3ccc4O)[C@H](O)c3ccc(c(Cl)c3)Oc3cc2cc(c3O[C@@H]2O[C@H](CO)[C@@H](O)[C@H](O)[C@H]2O[C@H]2C[C@](C)(N)[C@H](O)[C@H](C)O2)Oc2ccc(cc2Cl)[C@H]1O` [VANCOMYCIN] showed a concentration for half-maximal inhibition (IC50) in series [1] of 0.4 µM. For the same compound, 0.3 µM (≈ 0.435 µg/mL) was the least that counted as inhibitory in series [2] (MIC).

`O=C(Nc1cc(C(F)(F)F)cc(C(F)(F)F)c1)NN1CCOCC1` yielded an IC50 in series [1] of 135 µM. Moreover, 68 µM (≈ 24.3 µg/mL) was the least that counted as inhibitory in series [2] (MIC). The solubility in series [3] turned out to be 5 µg/mL (≈ 14 µM).

For `CC(C)c1nc2ccccc2c(=O)n1NC(=O)Nc1ccc(C(F)(F)F)cc1`, it took 44 µM to reach half-maximal inhibition in series [1] (IC50). The compound further returned an MIC in series [2] of 10 µM (≈ 3.9 µg/mL). For the same compound, the solubility in series [3] came out at 6 µg/mL (≈ 15.4 µM).

With `O=C(NNC(=O)Nc1cc(C(F)(F)F)cc(C(F)(F)F)c1)Nc1cc(C(F)(F)F)cc(C(F)(F)F)c1`, it took 17 µM to reach half-maximal inhibition in series [1] (IC50). Besides, in series [2], 3 µM (≈ 1.63 µg/mL) was the least that counted as inhibitory (MIC). In addition, the solubility in series [3] is less than 0.5 µg/mL.
